Where a name gives a salt, the structure may show the parent alone.
Tested on: not given
Test: not given
Conditions: Farmaco, Ed. Sci. 19, 668-702 (1964); cited from earlier work

Compound	acetylcholine antagonistic activity
C[N+](C)(C)CCON=C(c1ccccc1)c1ccccn1 [phenyl 2-pyridinyl ketone, O-dimethylaminoethyl oxime methiodide]	showed acetylcholine antagonistic activity

Tested on: indomethacin induced gastric damage in the rat
Test: Anti-ulcer activity: inhibition of indomethacin induced gastric damage
Assay type: in vivo
Conditions: po, 5 h, Table 2, 100 mg/kg orally, 30 min prior to and 2 h after indomethacin 15 mg/kg s.c.
Description: This was assessed by the inhibition of indomethacin induced gastric damage in the rat according to the method of Elegbe (Israeli J. Med. Sci. 10, 1451 (1974)).
Rats were starved overnight, given indomethacin subcutaneously (15 mg/kg) and sacrificed 5 hours later. Stomachs were inflated with 0.9% saline, cut along the greater curvature, pinned out and scored for gastric damage by the following system:
Score 1-3 according to the degree of erythema and slight haemorrhage.
Score 4-6 according to the degree of mucosal erosion.
Score 7-9 according to the depth of gastric damage. Groups of 7 rats were used for each treatment level of the compound under test and a similar group receiving vehicle only was set up on each occasion of testing. Compound or vehicle was administered orally 30 minutes prior to, and at 2 hours after, dosing with indomethacin. Mean values per treatment were obtained using the above scoring system and the Mann Witney test applied for significance between such values. The mean inhibition of gastric damage from a number of experiments is shown in the following Table 2; the dosage being 100 mg/kg orally.

Compound	inhibition in vivo at 100 mg/kg
CO/N=C(\c1ccccc1)c1ncc[nH]1 [Compound 17, 2-imidazolyl phenyl ketone, O-methyl oxime]	100%
CON=C(c1ccccc1)c1c(C)nc2ccccn12 [Compound 14, 2-methyl-3-imidazo[1,2-a]pyridinyl phenyl ketone, O-methyl oxime.HCl]	78%
CN(C)CCCON=C(c1ccccc1)c1nc2ccccc2s1 [Compound 33, 2-benzothiazolyl phenyl ketone, O-3-N,N-dimethylaminopropyl oxime.1 fumaric acid]	62%
CO/N=C(\c1ccc(F)cc1)c1cnccn1 [Compound 8, 4-fluorophenyl pyrazinyl ketone, O-methyl oxime]	96%
CON=C(c1ccccc1)c1nc2ccccc2[nH]1 [Compound 20, 2-benzimidazolyl phenyl ketone, O-methyl oxime]	78%
CO/N=C(/c1ccccc1)c1ncc[nH]1 [Compound 18, 2-imidazolyl phenyl ketone, O-methyl oxime]	91%
CN(C)CCCON=C(c1ccccc1)c1ncc[nH]1 [Compound 31, 2-imidazolyl phenyl ketone, O-3-N,N-dimethylaminopropyl oxime]	56%
C#CCON=C(c1ccccc1)c1cnccn1 [Compound 26, phenyl pyrazinyl ketone, O-propargyl oxime]	53%
CN(C)CCCON=C(c1ccccc1)c1cnc2ccccn12 [Compound 29, 3-imidazo[1,2-a]pyridinyl phenyl ketone, O-3-N,N-dimethylaminopropyl oxime.1/2 fumaric acid]	75%
CON=C(c1ccccc1)c1nccn1C [Compound 19, 1-methyl-2-imidazolyl phenyl ketone, O-methyl oxime]	91%
CN(C)CCCON=C(c1ccccc1)c1cnccn1 [Compound 27, phenyl pyrazinyl ketone, O-3-N,N-dimethylaminopropyl oxime.1 maleic acid]	92%
N#CCON=C(c1ccccc1)c1cnccn1 [Compound 24, Phenyl pyrazinyl ketone, O-cyanomethyl oxime]	93%
CON=C(c1cnccn1)c1ccco1 [Compound 23, 2-furanyl pyrazinyl ketone, O-methyl oxime]	98%
CO/N=C(/c1ccc(Cl)cc1)c1cnccn1 [Compound 2, 4-chlorophenyl pyrazinyl ketone, O-methyl oxime]	68%
CO/N=C(/c1ccc(F)cc1)c1cnccn1 [Compound 7, 4-fluorophenyl pyrazinyl ketone, O-methyl oxime]	96%
CO/N=C(/c1ccccc1)c1nccs1 [Compound 22, phenyl 2-thiazolyl ketone, O-methyl oxime.HBr]	78%
C=CCON=C(c1ccccc1)c1cnccn1 [Compound 25, phenyl pyrazinyl ketone, O-allyl oxime]	56%
CN(C)CCCON=C(c1ccccc1)c1ccc2ccccc2n1 [Compound 30, phenyl 2-quinolinyl ketone, O-3-N,N-dimethylaminopropyl oxime.1 fumaric acid]	79%
CO/N=C(\c1ccccc1)c1cnc2ccccn12 [Compound 12, 3-imidazo[1,2-a]pyridinyl phenyl ketone, O-methyl oxime]	61%
CO/N=C(\c1ccccc1)c1nccs1 [Compound 21, phenyl 2-thiazolyl ketone, O-methyl oxime]	89%

Tested on: not given
Test: not given
Conditions: J. Pharm. Sci. 58, 138-141 (1969); cited from earlier work

Compound	effective dose versus toxic dose	anti-androgenic activity
COc1ccc(C(=NOCCN(C)C)c2cccs2)cc1 [4-methoxyphenyl 2-thienyl ketone, O-dimethylaminoethyl oxime]	the effective dose was very close to the toxic dose	
phenyl 2-pyridinyl ketone, O-di(m)ethylaminoethyl oxime	the effective dose was very close to the toxic dose	showed anti-androgenic activity
CN(C)CCON=C(Cc1ccccn1)c1ccccc1 [phenyl 2-picolinyl ketone, O-dimethylaminoethyl oxime]	the effective dose was very close to the toxic dose	showed anti-androgenic activity

Tested on: Gastric Secretion, in the Pyloric Ligated Rat
Test: Effects on gastric secretion in the pyloric ligated rat (Shay method)
Assay type: in vivo
Conditions: intraduodenal, Table 1, 100 mg/kg i.d., 3 hours, mean of a number of experiments vs vehicle control, read-out: % Inhibition, Volume (of gastric secretion)
Description: 1. Effects on Gastric Secretion, in the Pyloric Ligated Rat.
The method as described by Shay et al. (Gastroenterol. 26, 906 (1945)) was used. After overnight starvation, the pylorus was ligated under halothane anaesthesia, and the compound under test or vehicle only administered intraduodenally and the rats allowed to recover. They were sacrificed three hours later and the gastric juice removed. After measurement of the volume of secretion, its hydrogen ion concentration [H^+ ] was determined by titration with 0.05 n NaOH to pH 7. Groups of 4-6 animals were used for each treatment and the inhibitory effects of the compound were ascertained by comparison of the mean values obtained with those from a simultaneously set up control group of animals which received vehicle only. Students `t` test was applied for significance between groups. The mean values for % inhibition obtained for a number of experiments are shown in the following Table 1, the dosage being 100 mg/kg i.d.

Compound	inhibition in vivo at 100 mg/kg
CO/N=C(\c1ccccc1)c1ncc[nH]1 [Compound 17, 2-imidazolyl phenyl ketone, O-methyl oxime]	55%
CON=C(c1ccccc1)c1c(C)nc2ccccn12 [Compound 14, 2-methyl-3-imidazo[1,2-a]pyridinyl phenyl ketone, O-methyl oxime.HCl]	59%
CN(C)CCCON=C(c1ccccc1)c1nc2ccccc2s1 [Compound 33, 2-benzothiazolyl phenyl ketone, O-3-N,N-dimethylaminopropyl oxime.1 fumaric acid]	55%
CO/N=C(\c1ccc(F)cc1)c1cnccn1 [Compound 8, 4-fluorophenyl pyrazinyl ketone, O-methyl oxime]	72%
CO/N=C(/c1ccccc1)c1cnccn1 [Compound 1, Phenyl pyrazinyl ketone, O-methyl oxime]	77%
CO/N=C(/c1ccccc1)c1ncc[nH]1 [Compound 18, 2-imidazolyl phenyl ketone, O-methyl oxime]	87%
CN(C)CCCON=C(c1ccccc1)c1ncc[nH]1 [Compound 31, 2-imidazolyl phenyl ketone, O-3-N,N-dimethylaminopropyl oxime]	80%
CON=C(c1ccccc1)c1nccn1C [Compound 19, 1-methyl-2-imidazolyl phenyl ketone, O-methyl oxime]	69%
CN(C)CCCON=C(c1ccccc1)c1cnccn1 [Compound 27, phenyl pyrazinyl ketone, O-3-N,N-dimethylaminopropyl oxime.1 maleic acid]	67%
CO/N=C(\c1ccccc1)c1cn2ccccc2n1 [Compound 10, 2-imidazo[1,2-a]pyridinyl phenyl ketone, O-methyl oxime]	66%
CO/N=C(/c1ccccc1)c1cn2ccccc2n1 [Compound 11, 2-imidazo[1,2-a]pyridinyl phenyl ketone, O-methyl oxime]	77%
CON=C(c1cnccn1)c1ccco1 [Compound 23, 2-furanyl pyrazinyl ketone, O-methyl oxime]	67%
CN(C)CCCON=C(c1ccccc1)c1nccn1C [Compound 32, 1-methyl-2-imidazolyl phenyl ketone, O-3-N,N-dimethylaminopropyl oxime]	83%
CO/N=C(/c1ccc(Cl)cc1)c1cnccn1 [Compound 2, 4-chlorophenyl pyrazinyl ketone, O-methyl oxime]	68%
CN(C)CCON=C(c1ccccc1)c1cnccn1 [Compound 28, phenyl pyrazinyl ketone, O-2,N,N-dimethylaminoethyl oxime.1 maleic acid]	56%
CO/N=C(/c1ccc(F)cc1)c1cnccn1 [Compound 7, 4-fluorophenyl pyrazinyl ketone, O-methyl oxime]	72%
CO/N=C(/c1ccccc1)c1nccs1 [Compound 22, phenyl 2-thiazolyl ketone, O-methyl oxime.HBr]	68%
CON=C(c1ccccc1)c1c(C)cc2ccccn12 [Compound 9, 2-methyl-3-indolizinyl phenyl ketone, O-methyl oxime]	83%
C=CCON=C(c1ccccc1)c1cnccn1 [Compound 25, phenyl pyrazinyl ketone, O-allyl oxime]	87%
CN(C)CCCON=C(c1ccccc1)c1ccc2ccccc2n1 [Compound 30, phenyl 2-quinolinyl ketone, O-3-N,N-dimethylaminopropyl oxime.1 fumaric acid]	72%
CO/N=C(\c1ccccc1)c1cnc2ccccn12 [Compound 12, 3-imidazo[1,2-a]pyridinyl phenyl ketone, O-methyl oxime]	55%
CO/N=C(\c1ccccc1)c1nccs1 [Compound 21, phenyl 2-thiazolyl ketone, O-methyl oxime]	57%
CN(C)CCCO/N=C(\c1ccccc1)c1nccs1 [Compound 34, phenyl 2-thiazolyl ketone, O-3-N,N-dimethylaminopropyl oxime.1 fumaric acid]	82%

Same assay, conditions: intraduodenal, Table 1, 100 mg/kg i.d., 3 hours, mean of a number of experiments vs vehicle control, read-out: % Inhibition, [H^+ ] (hydrogen ion concentration of gastric juice)

Compound	inhibition in vivo at 100 mg/kg
CO/N=C(\c1ccccc1)c1ncc[nH]1 [Compound 17, 2-imidazolyl phenyl ketone, O-methyl oxime]	26%
CON=C(c1ccccc1)c1c(C)nc2ccccn12 [Compound 14, 2-methyl-3-imidazo[1,2-a]pyridinyl phenyl ketone, O-methyl oxime.HCl]	23%
CN(C)CCCON=C(c1ccccc1)c1nc2ccccc2s1 [Compound 33, 2-benzothiazolyl phenyl ketone, O-3-N,N-dimethylaminopropyl oxime.1 fumaric acid]	38%
CO/N=C(/c1ccccc1)c1cnccn1 [Compound 1, Phenyl pyrazinyl ketone, O-methyl oxime]	23%
CN(C)CCCON=C(c1ccccc1)c1ncc[nH]1 [Compound 31, 2-imidazolyl phenyl ketone, O-3-N,N-dimethylaminopropyl oxime]	72%
CON=C(c1ccccc1)c1nccn1C [Compound 19, 1-methyl-2-imidazolyl phenyl ketone, O-methyl oxime]	49%
CN(C)CCCON=C(c1ccccc1)c1cnccn1 [Compound 27, phenyl pyrazinyl ketone, O-3-N,N-dimethylaminopropyl oxime.1 maleic acid]	49%
CO/N=C(\c1ccccc1)c1cn2ccccc2n1 [Compound 10, 2-imidazo[1,2-a]pyridinyl phenyl ketone, O-methyl oxime]	23%
CN(C)CCCON=C(c1ccccc1)c1nccn1C [Compound 32, 1-methyl-2-imidazolyl phenyl ketone, O-3-N,N-dimethylaminopropyl oxime]	41%
CO/N=C(/c1ccc(Cl)cc1)c1cnccn1 [Compound 2, 4-chlorophenyl pyrazinyl ketone, O-methyl oxime]	21%
CN(C)CCON=C(c1ccccc1)c1cnccn1 [Compound 28, phenyl pyrazinyl ketone, O-2,N,N-dimethylaminoethyl oxime.1 maleic acid]	59%
CON=C(c1ccccc1)c1c(C)cc2ccccn12 [Compound 9, 2-methyl-3-indolizinyl phenyl ketone, O-methyl oxime]	52%
C=CCON=C(c1ccccc1)c1cnccn1 [Compound 25, phenyl pyrazinyl ketone, O-allyl oxime]	27%
CN(C)CCCON=C(c1ccccc1)c1ccc2ccccc2n1 [Compound 30, phenyl 2-quinolinyl ketone, O-3-N,N-dimethylaminopropyl oxime.1 fumaric acid]	37%
CO/N=C(\c1ccccc1)c1cnc2ccccn12 [Compound 12, 3-imidazo[1,2-a]pyridinyl phenyl ketone, O-methyl oxime]	25%
CN(C)CCCO/N=C(\c1ccccc1)c1nccs1 [Compound 34, phenyl 2-thiazolyl ketone, O-3-N,N-dimethylaminopropyl oxime.1 fumaric acid]	42%

Tested on: indomethacin induced gastric damage in the rat
Test: Anti-ulcer activity: inhibition of indomethacin induced gastric damage
Assay type: in vivo
Conditions: po, 5 h, Table 2, *50 mg/kg orally, 30 min prior to and 2 h after indomethacin 15 mg/kg s.c.

Compound	inhibition in vivo at 50 mg/kg
CO/N=C(/c1ccccc1)c1cnccn1 [Compound 1, Phenyl pyrazinyl ketone, O-methyl oxime]	74%
CO/N=C(\c1ccccc1)c1cn2ccccc2n1 [Compound 10, 2-imidazo[1,2-a]pyridinyl phenyl ketone, O-methyl oxime]	89%
CO/N=C(/c1ccccc1)c1cn2ccccc2n1 [Compound 11, 2-imidazo[1,2-a]pyridinyl phenyl ketone, O-methyl oxime]	67%

Reference: patent publication US4352804A, “Oxime ethers, their preparation and pharmaceutical compositions containing them” (ACF Chemiefarma NV, priority 1978, dated 1982)
